These results are taken from patent publication US4055468A, “Processes for producing physiologically active peptide and its N-acyl derivatives” (priority 1974, dated 1977).

Where two headings read alike, the source gives them in different places.

The test system of series [1] is enzyme decomposing R--Val--Val--X--Ala--X to Val--X--Ala--X. The experiment in a line: Effect of various inhibitors and metal ions on enzyme activity. The series is classed as biochemical, Bacillus sphaericus ATCC 14577.
Series [2] deals with T1, pepsin (Sus scrofa, UniProt P00791).
T1 construct: purchased SIGMA 2XCRY (grade as printed; no catalogue number)
T1 sequence (P00791 60-385): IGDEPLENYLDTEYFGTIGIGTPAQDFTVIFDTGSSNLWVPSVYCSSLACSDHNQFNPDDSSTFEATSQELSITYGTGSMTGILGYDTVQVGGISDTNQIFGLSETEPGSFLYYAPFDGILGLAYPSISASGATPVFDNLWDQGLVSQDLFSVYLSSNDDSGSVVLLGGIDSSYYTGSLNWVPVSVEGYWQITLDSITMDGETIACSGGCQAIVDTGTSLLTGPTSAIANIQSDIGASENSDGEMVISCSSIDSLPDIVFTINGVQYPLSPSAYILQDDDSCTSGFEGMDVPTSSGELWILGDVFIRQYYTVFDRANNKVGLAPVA
Briefly: Assay of pepsin-inhibitory activity (casein digestion). The series is classed as biochemical. The protocol: Assay of pepsin-inhibitory activity in this invention was performed according to the following method: A mixture of 1 ml of 0.6%, by weight, highly purified case in dissolved in 0.08 M lactate buffer solution, pH 2.2, 0.7 ml of 0.02M KCl--HCl buffer solution, pH 2.0, and 0.2 ml of solution containing the compound sample was incubated at 37° C for 3 minutes. To this mixture 4 meg of pepsin (SIGMA, 2XCRY) dissolved in 0.1 ml of 0.2M KCl--HCl buffer solution were added. The mixture was incubated at 37° C for 30 minutes. The reaction was stopped by the addition of 2.0 ml of 1.7M perchloric acid. After 1 hour at room temperature, the optical density (a) of the supernatant liquid was read at 280 mμ. An inhibition rate was obtained according to:
where (b) is the optical density at 280 mμ of the tube without the sample solution.
The ID50 is defined as the amount necessary for 50% of the inhibition rate.

The subject of series [3] is mice. The experiment in a line: Acute toxicity by abdominal injection. It counts as in vivo. As for the experimental part: (§1) As an example of one of the physiological activities of the peptide and N-acyl derivatives thereof obtained according to the present invention, anti-pepsin and anti-cathepsin D activities and also acute toxicity are given in Table 8. The activities (ID50) were assayed according to the method described above and The Journal of Antibiotics 25 689 (1972). The anti-protease activities of the peptide and N-acyl derivatives thereof are extremely high.
Acute toxicity was examined by administering the compounds to the mice by
(§2) The peptide Val--X--Ala--X and its N-acyl derivatives according to this invention have low toxicity; mice, dogs, rats and rabbits tolerated oral administration of more than 2.000 mg/kg. of the compounds, and LD50 of the compounds for animals when administered by intraperitoneal injections are shown in Table 8. Daily 250 mg/kg oral administrations of each of the compounds to rats for 90 days caused no toxicity, and the rats grew at the normal growth rate.

Series [4] concerns the target Cathepsin D (Homo sapiens, UniProt P07339). Briefly: anti-cathepsin D activity. The series is classed as biochemical. The protocol: as §1
The test system of series [5] is enzyme decomposing R--Val--Val--X--Ala--X to Val--X--Ala--X. The experiment in a line: Substrate specificity of the purified enzyme. The series is classed as biochemical, Bacillus sphaericus ATCC 14577. As to conditions: in words. As for the experimental part: A medium having the same composition as in Experiment 1 was prepared and 50 ml of the medium was poured into a 500 ml flask. After sterilization at 120° C for 10 minutes, the medium was inoculated with Bacillus sphaericus ATCC 14577 and incubated on a reciprocal shaker (120 r.p.m.) at 30° C for 24 hours to obtain a seed culture. To a 20l jar fermentor was added to 10l of the medium having the same composition, sterilized at 120° C for 15 minutes and inoculated with the seed culture. The cultivation was performed at 30° C with agitation (300 r.p.m.) and aeration (5l/minute).
After 15 hours growth, isovalery-L-valvy-L-valyl-4-amino-3-hydroxy-6-methylheptanoyl-L-alanyl-4-amino-3-hydroxy-6-methylheptanoic acid was added to the culture in a concentration of 50 meg/ml and the cultivation was continued for another 33 hours. Cells were harvested by centrifugation with a Spharpless centrifuge, suspended in 2l of cold 0.01M phosphate buffer, pH 7.0, and disrupted by sonication 20 Kc for 2 minutes. These and the following procedures were carried out under 4° C. A supernatant from the sonicate was heated at 60° C for 10 minutes at pH 7.0. The resulting precipitate was removed by centrifugation and 3.8 g of streptomycin sulfate was added to 1.7l of the supernatant. Precipitated nucleic acid was removed by centrifugation. […]

The nature of series [6]: Solubility in solvents. It counts as physicochemical.
Series [7] relates to rats. Briefly: Tolerated oral administration. It counts as in vivo. The protocol:
as §2

Series [8] relates to mice. The experiment in a line: Tolerated oral administration. The series is classed as in vivo. As for the experimental part:
as §2

The test system of series [9] is rabbits. The experiment in a line: Tolerated oral administration. The series is classed as in vivo. As for the experimental part:
as §2

Series [10] relates to dogs. Briefly: Tolerated oral administration. It counts as in vivo. As for the experimental part:
as §2

The test system of series [11] is Stomach ulcers in rats. Briefly: Stress stomach ulcers in rats (method of Takagi et al.). The series is classed as in vivo. As to conditions: 50 - 200 mg/kg immediately after the stress and once daily for 4 days. As for the experimental part:
Stomach ulcers in rats made by the method described by Takagi et al. in the Japanese Journal of Pharmacology, 18, 9-19, 1958, that is, placing male rats in a cage at 23° C. for 22 hours, are protected or therapeutically treated by the compounds. […] When the dose was 10 mg/kg, the inhibition percentage of the ulcers was 50 - 60%.

The mark [12] stands for this setting: Concentration 2 mM, control 100.
Setting [13] is: Concentration 10 mM, control 100.

Cathepsin D, sequence (P07339 65-412, species assumed): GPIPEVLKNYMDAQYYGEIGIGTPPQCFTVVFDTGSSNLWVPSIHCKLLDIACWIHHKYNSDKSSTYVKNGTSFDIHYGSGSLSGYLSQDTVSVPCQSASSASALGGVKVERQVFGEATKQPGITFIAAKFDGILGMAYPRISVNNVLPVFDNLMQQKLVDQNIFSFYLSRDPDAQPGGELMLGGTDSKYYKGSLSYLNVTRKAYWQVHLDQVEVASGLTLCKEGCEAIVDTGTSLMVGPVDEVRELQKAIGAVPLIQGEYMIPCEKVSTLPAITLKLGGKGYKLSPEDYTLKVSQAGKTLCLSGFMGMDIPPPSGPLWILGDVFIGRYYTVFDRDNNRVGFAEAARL

As to `O[C@H](CS)[C@H](O)CS` (racemic) [Dithiothreitol], in series [1] (2mM), the “Inhibition of the enzyme” value is “Inhibition”. Besides, in series [1] (setting [12]), the Relative activity is reported as 0.
`CC(=O)N[C@H](C(=O)NC(CC(C)C)C(O)CC(=O)N[C@@H](C)C(=O)NC(CC(C)C)C(O)CC(=O)O)C(C)C` (stereo partly drawn) [Acetyl--Val--X--Ala--X, N--acetyl--Val--X--Ala--X]: the IC50 – broadly, the concentration that inhibits the measured activity by half – is 56.9 nM in series [2] and 771 nM in series [4]. For the same compound, in series [3], the “Acute toxicity(mg/kg) LD0” value is on record as at least 4000 mg/kg.
Turning to `CC(C)C[C@H](NC(=O)[C@H](C)NC(=O)C[C@H](O)[C@H](CC(C)C)NC(=O)[C@@H](NC(=O)c1ccccc1)C(C)C)[C@@H](O)CC(=O)O` [Benzoyl--Val--X--Ala--X, N--benzoyl--Val--X--Ala--X], the results for the IC50 in series [2] and in [4] were 51.1 nM and 82.4 nM, respectively. In [3], the “Acute toxicity(mg/kg) LD50” value amounted to 1350 mg/kg.
In the case of `[Ca+2].[Cl-].[Cl-]` [Calcium Choride], in series [1] (10 mM), the increase in activity was determined as 29%. Besides, the values for the Relative activity in [1] (setting [12]) and in series [1] (setting [13]) were 110 and 129, respectively.
On to `[Cl][Co][Cl]` [Cobalt Chloride], for which the increase in activity in [1] (2mM) is recorded as 34%; in series [1] (10 mM), 66%.
`O=C(O)CN(CCN(CC(=O)O)CC(=O)O)CC(=O)O` [Ethylenediaminetetraacetic Acid] registered a Relative activity in series [1] (setting [12]) of 30.
As to `[Cl][Hg][Cl]` [HgCl2], the “Inhibition of the enzyme” value in series [1] (2mM) is recorded as “Inhibition”.
As to `CC(C)CC(=O)N[C@H](C(=O)O)C(C)C` [IVA--Val], in series [5], the “susceptibility to the enzyme (hydrolysis)” value is given as “not split”.
Compound `CC(C)C[C@H](NC(=O)[C@H](C)NC(=O)C[C@H](O)[C@H](CC(C)C)NC(=O)[C@@H](NC(=O)C(C)C)C(C)C)[C@@H](O)CC(=O)O` [Isobutyryl--Val--X--Ala--X, N--isobutyryl--Val--X--Ala--X] showed an IC50 in series [4] of 489 nM. This lies in the sub-micromolar range.
With `CC(C)CC(=O)N[C@H](C(=O)N[C@@H](CC(C)C)[C@@H](O)CC(=O)N[C@@H](C)C(=O)N[C@@H](CC(C)C)[C@@H](O)CC(=O)O)C(C)C` [Isovaleryl--Val--X--Ala--X, N--isovaleryl--Val--X--Ala--], in series [3], the “Acute toxicity(mg/kg) LD0” value is on record as at least 3000 mg/kg. The compound further had an IC50 in [4] of 76.7 nM.
In turn, `CC(=O)[O-].CC(=O)[O-].[Pb+2]` [Lead Acetate] registered a Relative activity in series [1] of 43.
`CC(=O)[O-].CC(=O)[O-].[Hg+2]` [Mercuric Acetate] returned a Relative activity in series [1] of 0.
For the compound `O=C(O)CI` [Monoiodoacetic Acid], in series [1], the Relative activity is given as 84.
Turning to `O=C1CCC(=O)N1Br` [N-Bromosuccinimide], the “Inhibition of the enzyme” value in series [1] (2mM) is recorded as “Inhibition”. Also, in series [1] (setting [12]), the Relative activity came out at 0.
On to `[N-]=[N+]=[N-].[Na+]` [NaN3], for which, in series [1], the Relative activity is recorded as 100.
In series [4], `CCCCCCCCCCCCCCCC(=O)N[C@H](C(=O)N[C@@H](CC(C)C)[C@@H](O)CC(=O)N[C@@H](C)C(=O)N[C@@H](CC(C)C)[C@@H](O)CC(=O)O)C(C)C` [Palmitoyl--Val--X--Ala--X, N--palmitoyl--Val--X--Ala--X] had an IC50 of 1480 nM.
Take `CC(C)CC(NC(=O)[C@H](C)NC(=O)CC(O)C(CC(C)C)NC(=O)[C@@H](NC(=O)COc1ccccc1)C(C)C)C(O)CC(=O)O` (stereo partly drawn) [Phenoxyacetyl--Val--X--Ala--X, n--phenoxyacetyl--Val--X--Ala--X]: in series [3], the “Acute toxicity(mg/kg) LD50” value is recorded as 1500 mg/kg. In [4], half-maximal inhibition (IC50) required 12.6 nM.
Regarding `CC(C)C[C@H](NC(=O)[C@H](C)NC(=O)C[C@H](O)[C@H](CC(C)C)NC(=O)[C@@H](NC(=O)C(C)Oc1ccccc1)C(C)C)[C@@H](O)CC(=O)O` (stereo partly drawn) [Phenoxypropionyl--Val--X--Ala--X, N--2--phenoxypropionyl--Val--X--Ala--X], in [3], the “Acute toxicity(mg/kg) LD50” value came to 2100 mg/kg. In [4], this compound showed an IC50 of 15.4 nM.
On to `CC(C)C[C@H](NC(=O)[C@H](C)NC(=O)C[C@H](O)[C@H](CC(C)C)NC(=O)[C@@H](N)C(C)C)[C@@H](O)CC(=O)O` [Val--X--Ala--X, L-valyl-4-amino-3-hydroxy-6-methylheptanoyl-L-alanyl-4-amino-3-hydroxy-6-methylheptanoic acid], for which the solubility result in [6] (ether, ethyl acetate, and butyl acetate) is on record as “insoluble”; in [6] (methanol, ethanol, pyridine, and acetic acid) it was “soluble”; in series [6] (n-proponal, n-butanol, n-amyl alcohol and acetone), “slightly soluble”. In addition, the “Acute toxicity(mg/kg) LD0” value in series [3] is on record as at least 5000 mg/kg. Further, the IC50 in series [4] is 12900 nM. The tolerated oral administration result in [7], in series [8], in series [9] and in series [10] was “more than 2.000 mg/kg” throughout.
With `[Cl-].[Cl-].[Zn+2]` [Zinc Chloride], the values for the Relative activity in [1] (setting [12]) and in series [1] (setting [13]) were 66 and 44, respectively.
`c1cnc2c(c1)ccc1cccnc12` [o-Phenanthroline]: the “Inhibition of the enzyme” value in series [1] (2mM) is on record as “Inhibition”. In series [1] (setting [12]), this compound had a Relative activity of 0.
`O=C(O)c1cc[c]([Hg][Cl])cc1` [p-Chloromercuribenzoate]: the “Inhibition of the enzyme” value in series [1] is listed as “Inhibition”. In [1] (setting [12]), this compound came in with a Relative activity of 2.
On to `CC(C)CC(=O)N[C@H](C(=O)N[C@H](C(=O)N[C@@H](CC(C)C)[C@@H](O)CC(=O)N[C@@H](C)C(=O)N[C@@H](CC(C)C)[C@@H](O)CC(=O)O)C(C)C)C(C)C` [pepstatin], for which the cure of ulcers result in series [11] is given as “rapid cure of ulcers”.
Regarding `OCCS` [β-Mercaptoethanol], the “Inhibition of the enzyme” value in series [1] (2mM) was “Inhibition”. Further, the Relative activity in series [1] (setting [12]) is recorded as 0.
